The subject of data set [1] is UT7/EPO cells. The data set is described as follows: MTT assay, EPO-deprived UT7/EPO cells. It is filed as cell-based. As to conditions: Isatin treatment. On the procedure:
UT7/EPO cells were cultured for 4 hours and then placed in triplicate in 96 well microtiter plates. The cell was treated with Isatin or EPO or PBS and cultured in 100 ul of DMEM, 10% FCS, overnight. The next day, media was removed and replace MTT assay solution. The plates were incubated for and addition 48 hours. And then cell viability was determined using a MTT assay, as described by manufacture (Sigma).

For data set [2], the system named is UT7/EPO cells. The experiment in a line: DNA Ladder Detection Assay, EPO-deprived UT7/EPO cells. It counts as cell-based. As to conditions: Isatin treatment. On the procedure:
10^6 UT7/EPO cells, after treated with either Isatin or EPO or PBS, was lysed with 150 ul hypotonic lysis buffer (10 mM EDTA, 0.5% Triton X-100 in […] Tris-HCl, pH 7.4) for 15 minutes on ice and were precipitated with 2.5% polyethylene glycerol and 1 M NaCl for 15 minutes at 4 C. After centrifugation at 16,000 rpm for 10 minutes at room temperature, the supernatant was incubated in the presence of proteinase K (0.3 g/L) at 37° C. for one hour and precipitated with isopropanol at −20° C. After centrifugation, each cell pellet was dissolved in 10 ul of Tris-EDTA (pH 7.6) and electrophoresed on a 1.5% agarose gell containing ethidium bromide. Ladder formation of oligonucleosomal DNA was detected under ultraviolet.

Data set [3] deals with freshly isolated peripheral blood mononuclear cells. The experiment in a line: Melphalan-induced apoptosis in peripheral blood mononuclear cells. It is filed as cell-based. As to conditions: data not shown.
Data set [4] deals with UT7/EPO cells. The experiment in a line: Apoptosis Assay (AA), EPO-deprived UT7/EPO cells. It counts as cell-based. How it is done: UT7/EPO cells treated by Isatin or EPO or PBS was plated in triplicate in 96-well microtiter plates in 50 μl of culture medium and incubated for different time course. The cell apoptosis products were determined by Florence-probe. The cell apoptosis rate was calculated by positive apoptosis fragments.
We used several assays as mentioned in Materials and Methods section to evaluate the pharmacological activity of Isatin compound by examining the growth or the apoptosis of UT7/EPO cells. The cells used in AA assay are UT7/EPO. UT7/EPO cells were deprived from UT7 by elegant genetic engineering. As a result, the survival and growth of UT7/EPO cells rely on the stimulation of EPO-R by the exogenous EPO treatment. On the other hand, without the support of the exogenous EPO, the UT7/EPO cells will die. […] We used different assays to measure the level of apoptosis in UT7/EPO cells. If the tested compounds have erythropoietic agonist effect, the level of apoptosis in UT7/EPO cells should decrease in response to the treatment. […] Compared to EPO, higher dose of Isatin was required to generate the same extent of inhibition.

A further data set has as its system JAK2-associated EPOR. The data set is described as follows: Immunoprecipitate study of phosphorylation of JAK2-associated EPOR in UT7/EPO cells. It counts as cell-based. How it is done:
Referring to FIG. 5B, the Isatin-induced EPO-R phosphorylation occurs 5 minutes after the treatment and sustains beyond 1 hour afterwards.

The subject of the next data set is RPM18226 cells. The experiment in a line: Melphalan-induced apoptosis in RPM18226 cells. As to conditions: data not shown. It is filed as cell-based.
In data set [5] the test system is UT7/EPO cells. The experiment in a line: Calcein-AM release assay, EPO-deprived UT7/EPO cells. It counts as cell-based. As to conditions: Isatin treatment. How it is done:
Calcein-AM was purchased from Molecular Probes (Eugene) as a 1 mg/ml solution in dry dimethyl sulfoxide. UT7/EPO cells were resuspended in complete medium at a final concentration of 10^6/ml and incubated with 15 uM calcein-AM for 30 mininutes at 37° C. with occasional shaking. After two washes in the same way as the ^51Cr assay in V bottom 96-well microtiter plates, with E:T ratios ranging from 50:1 to 0.5:1, in triplicate, and with at least six replicate wells for spontaneous and maximum release. Various numbers of UT7/EPO cells treated with Isatin or EPO or with untreated cells were seeded as follows. After incubation 37° C. in 5% CO2 for 4 hours, 75 ul of each supernatant was harvested and transferred into new plates. The samples were measured using a Sepctramax Gemini dual-scanning microplate spectrofluoimeter. Data were expressed as arbitrary fluorescent unites (AFU). Percent lysis was calculated with the same formula used for the ^51Cr for the ^51CR assay.

The subject of the next data set is STAT5. The data set is described as follows: Immunoprecipitate analysis of STAT5 phosphorylation in UT7/EPO cells. It counts as cell-based. As to conditions: FIG. 6. The text has this:
FIG. 6 illustrates the results of Immunoprecipiate analysis of the effects of EPO and Isatin on STAT5 phosphorylation in UT7/EPO Cells.
Activation of EPO-R by EPO is predominately mediated by JAK signaling pathway, and STAT5 protein is the major component involving in this signal transduction. We studied the activity of STAT5 in response to Isatin treatment.

Data set [6] has as its system UT7/EPO cells. The data set is described as follows: Viable cell counts (trypan blue staining), EPO-deprived UT7/EPO cells. Conditions: Isatin treatment. It is filed as cell-based.
A further data set has as its system MO7E cells. The experiment in a line: Apoptosis Assay (AA), GM-CSF-deprived MO7E cells. It is filed as cell-based. As to conditions: FIG. 4.
For data set [7] the following is noted: initial phase of therapy; cited from earlier work.
The conditions of data set [8]: refrigerator between 2° C. and 8° C.; cited from earlier work.

The source of these data is patent US20060229354A1, “Use of Isatin in stimulating red blood cell production and treatment of anemia” (priority 2005, published 2006).

Where only a bound is given, the exact number is not on record here.

Regarding `O=C1Nc2ccccc2C1=O` [Isatin, Indole-2,3-dione], the “MTT (cell viability)” value in the data set on UT7/EPO cells [1] is recorded as “↑”. In addition, the “DNA Ladder Assay” value in the data set on UT7/EPO cells [2] was “↓”. Moreover, the “inhibition of Melphalan-induced apoptosis in freshly isolated peripheral blood mononuclear cells” value in data set [3] is recorded as “no noted inhibition”. The IC50 with UT7/EPO cells [4] (Homo sapiens, UT-7/Epo, read-out: IC50 for inhibiting apoptosis in UT7/EPO cells) was ~10 µM. The “effect of Isatin used together with EPO on apoptosis inhibition / EPO-R activity” value in the data set on UT7/EPO cells [4] (Isatin together with EPO, UT7/EPO cells, FIG. 3) was “synergistic effect”. The “AA (apoptosis)” value in the data set on UT7/EPO cells [4] (Isatin treatment, EPO-deprived UT7/EPO cells) is “↓”. Further, in the data set with UT7/EPO cells [4] (UT7/EPO cells, comparison with EPO), the “erythropoietic stimulation effect compared with EPO” value was “weaker than that of EPO”. Further, in the data set with UT7/EPO cells [4] (increasing Isatin concentration, FIGS. 2A and 2B), the “apoptosis inhibition on UT7/EPO cells, concentration dependence” value is recorded as “steadily enhanced when the concentration of Isatin was increased”. Also, in the data set with JAK2-associated EPOR (FIG. 5B), the “duration of EPO-R phosphorylation after treatment” value was > 1 h and the “time of onset of EPO-R phosphorylation after treatment” value was 5 min. Further, the “phosphorylation of EPO-R through JAK2 mediated signaling pathway” value with JAK2-associated EPOR (FIGS. 5A and 5B) is “induces phosphorylation of EPO-R”. For the same compound, in the data set on JAK2-associated EPOR (Isatin together with EPO), the “phosphorylation of EPO-R, Isatin used together with EPO” value is “significantly enhance the phosphorylation of EPO-R”. The “inhibition of Melphalan-induced apoptosis in RPM18226 cells” value with RPM18226 cells is reported as “no noted inhibition”. In addition, in the data set on UT7/EPO cells [5], the “Calcein (cell viability)” value is on record as “↑”. Also, the “STAT5 activity (phosphorylation) during treatment” value in the data set on STAT5 is “no change in STAT5 activity”. For the same compound, the “Viable Cell Counts (trypan blue staining)” value with UT7/EPO cells [6] is listed as “↑”. Moreover, the “inhibition of GM-CSF withdrawal-induced apoptosis in MO7E cells” value in the data set with MO7E cells is given as “no noted inhibition”.

For “Epoetin alfa: recombinant EPO protein developed by Amgen, approved by FDA for the treatment of anemia”, the “increase in the hematocrit” value in data set [7] is given as 2 % per week. Further, the “shelf life of multi-dose vials in refrigerator after the initial dose” value in [8] is “about 20 days”.
